Data set [1] relates to RET fusion-positive NSCLC. Conditions: cited from earlier work.
The subject of data set [2] is human esophageal cancer ECA-109 tumors. As to the kind of experiment: ECA-109 tumors in nude mice. Format: in vivo. Conditions: 8 mg/kg.
For data set [3], the system named is human esophageal cancer KYSE-150 xenografts. In words: KYSE-150 xenografts in nude mice. The data set is classed as in vivo.
Data set [4] has as its system A498 cells. As to the kind of experiment: Tumor cell proliferation in vitro. The data set is classed as cell-based. Particulars: Homo sapiens.
Data set [5] concerns KYSE-150 cells. As to the kind of experiment: Tumor cell proliferation in vitro. Particulars: Homo sapiens, KYSE-150; read-out: IC50, proliferation. The data set is classed as cell-based, human.
Data set [6] deals with VEGFR and ERK activation. In words: VEGF165-stimulated activation of VEGFR and ERK in HUVEC cells. Conditions: 50 ng/mL VEGF165, concentration-dependent. The data set is classed as cell-based, human.
The test system of data set [7] is BEL-7402 cells. As to the kind of experiment: Tumor cell proliferation in vitro. Format: cell-based. Particulars: Homo sapiens, Bel-7402; read-out: IC50, proliferation.
In data set [8] the test system is 8305C cells. In words: Tumor cell proliferation in vitro. The data set is classed as cell-based. Particulars: Homo sapiens.
For data set [9], the system named is TT cells. In words: Tumor cell proliferation in vitro. Format: cell-based, human. Conditions: Homo sapiens.
Data set [10] concerns EGFR and ERK activation. As to the kind of experiment: EGF-stimulated activation of EGFR and ERK in A431 cells. The data set is classed as cell-based, human. Particulars: 10 ng/mL EGF, concentration-dependent.
Data set [11] relates to human gastric cancer SGC-7901 tumors. As to the kind of experiment: SGC-7901 tumors in nude mice. The data set is classed as in vivo.
Excerpt: (§1) was higher than that of vandetanib .
as §1
Table S16. Efficacy of HA121-28 on human gastric cancer SGC-7901 tumors

For data set [12], the system named is CFPAC-1 cells. In words: Tumor cell proliferation in vitro. Format: cell-based. Particulars: Homo sapiens.
Data set [13] deals with A375 cells. As to the kind of experiment: Tumor cell proliferation in vitro. The data set is classed as cell-based, human. Conditions: Homo sapiens, A-375.
For data set [14] the following is noted: ref Phase I clinical study results of vandetanib; cited from earlier work.
In data set [15] the test system is HCT116 cells. In words: Tumor cell proliferation in vitro. Format: cell-based. Particulars: Homo sapiens, HCT-116.
Data set [16] has as its system A431 cells. In words: Tumor cell proliferation in vitro. The data set is classed as cell-based, human. Particulars: Homo sapiens, A-431, read-out: IC50, proliferation.
Data set [17] concerns human thyroid cancer TT tumors. In words: TT tumors in nude mice. The data set is classed as in vivo. Conditions: TT tumors.
Excerpt: as §1, §1
Table S15. Efficacy of HA121-28 on human thyroid cancer TT tumors

The subject of data set [18] is HUVEC cells. In words: cells. Particulars: Homo sapiens.
For data set [19], the system named is human melanoma A375 tumors. In words: A375 tumors in nude mice. The data set is classed as in vivo.
For data set [20], the system named is SGC-7901 cells. As to the kind of experiment: Tumor cell proliferation in vitro. Particulars: Homo sapiens, SGC-7901; SGC7901. Format: cell-based, human.

Like-named read-outs stand apart in the source and are kept apart here. Marks after values point to notes of the source that are not given here.

We go through 5 molecules from publication PMC11868595, “Safety, pharmacokinetics and efficacy of HA121-28 in patients with advanced solid tumors and RET fusion-positive non-small-cell lung cancer: a multicenter, open-label, single-arm phase 1/2 trial” (Signal Transduction and Targeted Therapy, 2025).

`COc1ccc(CN2C3CC2CN(c2ccc(-c4cc(OCC(C)(C)O)cn5ncc(C#N)c45)cn2)C3)cn1` [Selpercatinib]: the ORR in data set [1] (platinum-pretreated patients ref 37) is 61%.

Consider `N.N.[Cl][Pt][Cl]` [Cisplatin], for which, in data set [2], the “RTV ±SD” value is given as 6.4±2.9, the T/C is 62.0% and the “Terminal Tumor Volume” value is 1,580.0±952.4 mm^3. In data set [3] (10 mg/kg), the “RTV X±SD” value is given as 5.0±3.9, the T/C was found to be 32.6% and the “Terminal Tumor Volume” value is on record as 694.4±237.4** mm^3.

On to `CO[C@]1(C(=O)N[C@@H](C)c2ccc(-n3cc(F)cn3)nc2)CC[C@H](c2nc(C)cc(Nc3cc(C)[nH]n3)n2)CC1` [Pralsetinib], for which the ORR in [1] (platinum-pretreated patients ref 38) is listed as 61%.

For the molecule `COc1cc2c(Nc3ccc(Br)cc3F)ncnc2cc1OCC1CCN(C)CC1` [vandetanib, reference compound], the IC50 is 1030 ± 42.7 nM in [4]; 1500 ± 135 nM in [5]; 15.1 ± 1.13 µM in data set [7]; 1250 ± 96.3 nM in [8]; 3.57 ± 0.0382 µM in data set [9]; 336 ± 10 nM in data set [12]. Also, the IC50 in data set [13] came out at 2190 ± 318 nM; in data set [15] it was 3.19 ± 0.688 µM; in [16], 1140 ± 255 nM; in data set [18], 117 nM; in data set [20] it was 4.37 ± 0.441 µM. Moreover, the “activation of VEGFR and downstream ERK” value in [6] is on record as “significantly inhibited”. For the same molecule, the results for the “RTV X±SD” value in data set [3] (12.5 mg/kg), in data set [3] (25 mg/kg) and in [3] (50 mg/kg) were 5.2±1.9, 2.6±0.7 and 1.3±0.6, respectively. The T/C is 34.2% in [3] (12.5 mg/kg); 16.8% in data set [3] (25 mg/kg); 8.4% in data set [3] (50 mg/kg); 23.0% in data set [11] (50 mg/kg); 14.3% in data set [11] (75 mg/kg); 34.1% in data set [17] (25 mg/kg). Also, the T/C was found to be 17.0% in [17] (50 mg/kg); 8.9% in [17] (75 mg/kg); 108.1% in [19] (12.5 mg/kg); 55.7% in data set [19] (25 mg/kg); 35.0% in data set [19] (50 mg/kg). Moreover, the “Terminal Tumor Volume” value is recorded as 847.0±247.2** mm^3 in data set [3] (12.5 mg/kg); 489.8±273.9** mm^3 in data set [3] (25 mg/kg); 273.9±189.8** mm^3 in data set [3] (50 mg/kg); 690.9±259.8** mm^3 in data set [11] (50 mg/kg); 486.9±221.2** mm^3 in [11] (75 mg/kg); 302.4±91.1** mm^3 in data set [17] (25 mg/kg). Moreover, the “Terminal Tumor Volume” value in data set [17] (50 mg/kg) is on record as 155.5±82.1** mm^3; in data set [17] (75 mg/kg), 100.1±62.5** mm^3; in data set [19] (12.5 mg/kg), 2824.1±1001.2 mm^3; in [19] (25 mg/kg) it was 1719.9±822.4 mm^3. Further, in data set [10], the “activation of EGFR and downstream ERK” value was “significantly inhibited”. Besides, the “RTV ±SD” value in [11] (50 mg/kg) was found to be 3.6±1.7; in data set [11] (75 mg/kg), 2.3±1.0; in [17] (25 mg/kg), 2.1±1.0; in [17] (50 mg/kg), 1.0±0.4; in data set [17] (75 mg/kg), 0.5±0.2; in data set [19] (12.5 mg/kg) it was 22.1±17.2. Besides, the “RTV ±SD” value is 11.4±4.7 in [19] (25 mg/kg) and 7.2±1.4 in data set [19] (50 mg/kg). In [14], the MTD was 500 mg/day.

Turning to `N#CC1(c2ccc(NC(=O)c3cccnc3NCc3ccncc3)cc2)CCCC1` [Apatinib], in data set [11] (200 mg/kg), the “RTV ±SD” value worked out at 4.2±1.2, the T/C is recorded as 26.5% and the “Terminal Tumor Volume” value is 793.5±324.4** mm^3.
